The values that follow come from patent publication US12398151B2, “Sumo inhibitor compounds and uses thereof” (SUVALENT THERAPEUTICS, INC., priority 2019, dated 2025).

For test [1], the target named is T1, SUMO E1 (Homo sapiens, UniProt Q9UBT2).
T1 sequence (Q9UBT2 1-640): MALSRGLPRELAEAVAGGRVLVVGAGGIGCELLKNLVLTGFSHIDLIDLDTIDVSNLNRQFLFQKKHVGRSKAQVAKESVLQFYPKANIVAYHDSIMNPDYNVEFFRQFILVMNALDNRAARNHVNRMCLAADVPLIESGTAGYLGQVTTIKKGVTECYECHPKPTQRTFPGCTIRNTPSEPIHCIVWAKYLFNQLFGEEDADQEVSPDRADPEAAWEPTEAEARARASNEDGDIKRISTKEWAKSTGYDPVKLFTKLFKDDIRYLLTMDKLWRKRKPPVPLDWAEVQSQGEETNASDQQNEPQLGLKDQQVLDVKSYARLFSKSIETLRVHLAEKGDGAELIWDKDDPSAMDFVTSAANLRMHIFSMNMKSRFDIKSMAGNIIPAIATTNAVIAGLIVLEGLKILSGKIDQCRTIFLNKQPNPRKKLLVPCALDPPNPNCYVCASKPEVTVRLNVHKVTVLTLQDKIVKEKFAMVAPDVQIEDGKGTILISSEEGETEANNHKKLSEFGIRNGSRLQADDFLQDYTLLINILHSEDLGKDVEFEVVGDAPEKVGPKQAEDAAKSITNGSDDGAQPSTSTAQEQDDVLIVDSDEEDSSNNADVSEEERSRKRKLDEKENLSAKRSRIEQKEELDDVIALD
T1 sequence (Q9UBE0 1-346 partner): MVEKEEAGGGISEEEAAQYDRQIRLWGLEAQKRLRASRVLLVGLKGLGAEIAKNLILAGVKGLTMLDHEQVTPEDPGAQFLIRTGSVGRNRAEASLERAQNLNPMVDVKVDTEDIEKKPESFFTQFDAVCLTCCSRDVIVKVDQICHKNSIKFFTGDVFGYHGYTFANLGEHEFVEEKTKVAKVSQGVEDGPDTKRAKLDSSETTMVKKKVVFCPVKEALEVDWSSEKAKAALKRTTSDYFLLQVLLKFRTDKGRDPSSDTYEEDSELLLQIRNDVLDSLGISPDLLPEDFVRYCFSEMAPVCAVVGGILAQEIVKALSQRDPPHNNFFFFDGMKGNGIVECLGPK
The test can be described thus: SUMO E1 inhibition: UBC9-SUMO1 conjugation by SDS gel electrophoresis. Type of test: biochemical. The following applies: for inhibition at 25 µM / SUMO E1 percent inhibition of adduct formation: 25 uM compound; for inhibition at 25 µM / inhibition at 10 µM / SUMO E1 percent inhibition of adduct formation: 60 min preincubation; for inhibition at 10 µM: 10 uM compound; for SUMO E1 percent inhibition of adduct formation: 25 µM. As to the method: (§1) Compounds are evaluated for their inhibitory effect on activating enzymes (E1) of ubiquitin, SUMO, Nedd8, Urm1, ISG15 or Atg7 using previously reported methods and protocols. One example is in: Allosteric inhibition of ubiquitin-like modifications by a class of inhibitor of SUMO-activating enzyme. Cell Chemical Biology, 26, 1-11, 2019. PMID: 28051857.
(§2) Compounds are tested in the following manner. The compound and SUMO E1 are incubated for a predetermined amount of time. UBC9, SUMO1, and ATP are added to the E1-compound mixture and incubated at 37° C. The reaction is quenched with Laemmli Buffer. The UBC9-SUMO1 conjugation is analyzed via SDS gel electrophoresis. The percent inhibition is measured by the intensity of the UBC9-SUMO1 band compared to the no compound control. Activities are listed as compound concentration (uM), preincubation time of E1 with compound (min), and percent inhibition of adduct formation (%). […]

For test [2], the target named is T2, Atg7 (Homo sapiens, UniProt O95352).
T2 sequence (O95352 1-703): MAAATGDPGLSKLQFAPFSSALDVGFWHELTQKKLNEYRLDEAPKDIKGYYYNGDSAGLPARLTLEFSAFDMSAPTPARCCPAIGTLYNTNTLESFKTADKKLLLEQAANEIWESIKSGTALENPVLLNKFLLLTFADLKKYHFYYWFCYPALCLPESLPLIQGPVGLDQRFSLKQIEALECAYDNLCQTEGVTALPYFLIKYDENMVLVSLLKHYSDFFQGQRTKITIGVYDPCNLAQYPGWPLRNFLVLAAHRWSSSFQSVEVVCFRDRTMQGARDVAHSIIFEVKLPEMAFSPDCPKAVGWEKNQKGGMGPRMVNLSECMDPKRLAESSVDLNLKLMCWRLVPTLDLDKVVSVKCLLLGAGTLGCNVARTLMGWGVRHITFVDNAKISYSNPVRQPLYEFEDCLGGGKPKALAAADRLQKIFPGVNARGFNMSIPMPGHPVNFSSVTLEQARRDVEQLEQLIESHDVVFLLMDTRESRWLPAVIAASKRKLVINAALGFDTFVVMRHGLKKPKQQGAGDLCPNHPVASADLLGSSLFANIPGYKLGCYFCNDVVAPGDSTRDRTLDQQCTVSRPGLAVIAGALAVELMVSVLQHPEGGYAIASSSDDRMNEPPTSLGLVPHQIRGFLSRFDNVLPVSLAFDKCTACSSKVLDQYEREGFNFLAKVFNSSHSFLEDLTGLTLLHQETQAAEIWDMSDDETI
The test can be described thus: Atg7 activating enzyme (E1) inhibition. The following applies: 25 uM compound, 60 min preincubation; for inhibition at 25 µM: read-out: Atg7 percent inhibition of adduct formation. Type of test: biochemical. As to the method:
as §1, §2

Where [3] appears, read: read-out: SUMO E1 percent inhibition of adduct formation.

In the case of `C=CC(=O)N1Cc2ccc(Oc3cccnc3)cc2[C@@H](c2ccccc2)C1` [Compound 31], the inhibition at 25 µM in test [1] (setting [3]) and in test [2] was < 1% in each case.
Consider `C=CC(=O)N1Cc2ccccc2[C@@H](C(=O)Nc2ccccc2)C1` [Compound 32], for which the inhibition at 25 µM in test [1] (setting [3]) and in test [2] was < 1% throughout.
In the case of `C=CC(=O)N1Cc2cc(OC)ccc2[C@@H](c2ccc(Cl)cc2)C1` [Compound 34], the inhibition at 25 µM in test [1] (setting [3]) and in test [2] was < 1% in each case.
As for `C=CC(=O)N1Cc2ccccc2[C@@H](c2cccc(OC)c2)C1` [Compound 35], the inhibition at 25 µM in test [1] (setting [3]) and in test [2] was < 1% each time.
With `C=CC(=O)N1Cc2cc(OCC)ccc2[C@@H](c2ccccc2)C1` [Compound 36], the inhibition at 25 µM was 40% in test [1] (setting [3]) and < 1% in test [2].
On the same counts, the results for `COC(=O)/C=C/C(=O)N1Cc2ccccc2[C@@H](c2ccccc2)C1` [Compound 37] are 40% and < 1%.
Regarding `C=CC(=O)N1Cc2ccc(-c3ccccc3)cc2[C@@H](c2ccccc2)C1` [Compound 38], the inhibition at 25 µM in test [1] (setting [3]) and in test [2] was < 1% in each case.
Turning to `C=CC(=O)N1Cc2ccc(C(C)C)cc2[C@@H](c2ccccc2)C1` [Compound 39], the inhibition at 25 µM in test [1] (setting [3]) and in test [2] was < 1% each time.
Take `C=CC(=O)N1Cc2ccc(CCO)cc2[C@@H](c2ccccc2)C1` [Compound 40]: the inhibition at 25 µM in test [1] (setting [3]) and in test [2] was < 1% in each case.
In the case of `C=CC(=O)N1Cc2ccc(CC)cc2[C@@H](c2ccccc2)C1` [Compound 41], the inhibition at 25 µM in test [1] (setting [3]) and in test [2] was < 1% in each case.
Take `C=CC(=O)N1Cc2cc(OC)ccc2[C@@H](c2ccccc2)C1` [Compound 42]: the inhibition at 25 µM in test [1] (setting [3]) and in test [2] was < 1% in each case.
With `C=CC(=O)N1Cc2ccccc2[C@@H](c2c(F)cccc2F)C1` [Compound 43], the inhibition at 25 µM in test [1] (setting [3]) and in test [2] was < 1% each time.
Consider `C=CC(=O)N1Cc2ccccc2[C@@H](c2cccc(O)c2)C1` [Compound 45], for which the inhibition at 25 µM in test [1] (setting [3]) and in test [2] was < 1% in each case.
On to `C=CC(=O)N1Cc2ccc(Br)cc2[C@@H](c2ccccc2Cl)C1` [Compound 46], for which the inhibition at 9 µM in test [1] (9 uM compound, 30 min preincubation, read-out: SUMO E1 percent inhibition of adduct formation) is 50%. In addition, in test [2], the inhibition at 25 µM is < 1%.
With `C=CC(=O)N1Cc2c(C)cc(Br)cc2[C@@H](c2ccccc2)C1` [Compound 47], the inhibition at 25 µM in test [1] (setting [3]) and in test [2] was < 1% each time.
As to `C=CC(=O)N1Cc2cc(OCC(C)C)ccc2[C@@H](c2ccccc2)C1` [Compound 48], the inhibition at 25 µM in test [1] (setting [3]) was 30%; in test [2] it was < 1%.
The corresponding values for `C=CC(=O)N1Cc2cc(OCc3ccccc3)ccc2[C@@H](c2ccccc2)C1` [Compound 49] are < 1% and < 1%.
Regarding `C=CC(=O)Nc1cccc([C@H]2CN(C(=O)C=C)Cc3ccccc32)c1` [Compound 52], the figures for the inhibition at 25 µM in test [1] (setting [3]) and in test [2] were 50% and < 1%, respectively.
Regarding `C=CC(=O)N1CCc2cc(Oc3cccc(C)c3)ccc2C1` [Compound 53], the inhibition at 25 µM in test [1] (setting [3]) and in test [2] was < 1% each time.
Take `C=CC(=O)N1CCc2cc(Oc3cccnc3)ccc2C1` [Compound 54]: the figures for the inhibition at 25 µM in test [1] (setting [3]) and in test [2] were 10% and < 1%, respectively.
On the same counts, the results for `C=CC(=O)N1Cc2ccc(Br)cc2[C@@H](c2ccccc2Br)C1` [Compound 55] are 50% and < 1%.
The corresponding values for `C=CC(=O)N1Cc2ccc(Br)cc2[C@@H](c2c(Cl)cccc2Cl)C1` [Compound 56] are < 1% and < 1%.
For the molecule `C=CC(=O)N1Cc2ccc(Br)cc2[C@@H](c2ccccc2C(F)(F)F)C1` [Compound 57], the inhibition at 25 µM in test [1] (setting [3]) was 90%; in test [2], < 1%.
In the case of `C=CC(=O)N1Cc2ccc(Br)cc2[C@@H](c2ccccc2C)C1` [Compound 58], the inhibition at 25 µM in test [1] (setting [3]) was 95%; in test [2], < 1%.
The corresponding values for `C=CC(=O)N1Cc2ccccc2[C@@](C)(c2ccccc2)C1` [Compound 59] are 40% and < 1%.
As to `C=CC(=O)N1Cc2ccc(OC)cc2[C@@H](c2ccccc2)C1` [Compound 60], the inhibition at 25 µM was 40% in test [1] (setting [3]) and < 1% in test [2].
In the case of `C=CC(=O)N1Cc2cc(Br)ccc2[C@@H](c2ccccc2)C1` [Compound 61], the inhibition at 10 µM in test [1] (setting [3]) turned out to be 100%. Besides, the inhibition at 25 µM in test [2] is < 1%.
On to `C=CC(=O)N1Cc2cccc(Br)c2[C@@H](c2ccccc2)C1` [Compound 62], for which the values for the inhibition at 25 µM in test [1] (setting [3]) and in test [2] were 5% and < 1%, respectively.
Consider `C=CC(=O)N1Cc2ccc(Cl)cc2[C@@H](c2ccccc2)C1` [Compound 63], for which the inhibition at 10 µM in test [1] (setting [3]) stood at 50%. Moreover, in test [2], the inhibition at 25 µM is < 1%.
The corresponding values for `C=CC(=O)N1Cc2cc(Cl)ccc2[C@@H](c2ccccc2)C1` [Compound 64] are 100% and < 1%.
On to `C=CC(=O)N1Cc2ccc(Br)cc2[C@@H](c2ccc(Cl)cc2)C1` [Compound 65], for which the “SUMO E1 percent inhibition of adduct formation” value in test [1] amounted to 25 uM 60 min 10%. Besides, the inhibition at 25 µM in test [2] is < 1%.
For `C=CC(=O)N1Cc2ccc(Br)cc2[C@@H](c2ccc(Cl)cc2)C1` [Compound 66], in test [1], the “SUMO E1 percent inhibition of adduct formation” value worked out at 25 uM 60 min <1%. Moreover, in test [2], the “Atg7 percent inhibition of adduct formation” value is listed as 25 uM 60 min <1%.
Take `C=CC(=O)N1C[C@H](c2ccccc2)c2cc(Br)ccc2C1(C)C` [Compound 67]: the inhibition at 25 µM in test [1] (setting [3]) and in test [2] was < 1% in each case.
On to `C=CC(=O)N1Cc2cccc(Br)c2[C@@H](c2ccccc2C)C1` [Compound 69], for which the inhibition at 10 µM in test [1] (setting [3]) is 60%. Besides, the inhibition at 25 µM in test [2] is < 1%.
In the case of `C=CC(=O)N1Cc2cc(Br)ccc2[C@@H](c2ccccc2OC)C1` [Compound 70], the inhibition at 10 µM in test [1] (setting [3]) amounted to 60%. Also, in test [2], the inhibition at 25 µM was < 1%.
On to `C=CC(=O)N1Cc2cccc(Br)c2[C@@H](c2ccccc2OC)C1` [Compound 71], for which the values for the inhibition at 25 µM in test [1] (setting [3]) and in test [2] were 20% and < 1%, respectively.
In the case of `C=CC(=O)N1Cc2sc(Br)cc2[C@@H](c2ccccc2C)C1` [Compound 72], the inhibition at 10 µM in test [1] (setting [3]) came to 100%. Besides, in test [2], the inhibition at 25 µM is < 1%.

Usually inhibition stands for the share of the control response that was lost under treatment.
